Tests used:
[1] = molecular target: T1, Tyrosine-protein kinase receptor UFO (Mus musculus, UniProt Q00993); assay: Inhibition of Axl in mouse BaF3 cells; assay type: cell-based
T1 sequence (Q00993 whole entry): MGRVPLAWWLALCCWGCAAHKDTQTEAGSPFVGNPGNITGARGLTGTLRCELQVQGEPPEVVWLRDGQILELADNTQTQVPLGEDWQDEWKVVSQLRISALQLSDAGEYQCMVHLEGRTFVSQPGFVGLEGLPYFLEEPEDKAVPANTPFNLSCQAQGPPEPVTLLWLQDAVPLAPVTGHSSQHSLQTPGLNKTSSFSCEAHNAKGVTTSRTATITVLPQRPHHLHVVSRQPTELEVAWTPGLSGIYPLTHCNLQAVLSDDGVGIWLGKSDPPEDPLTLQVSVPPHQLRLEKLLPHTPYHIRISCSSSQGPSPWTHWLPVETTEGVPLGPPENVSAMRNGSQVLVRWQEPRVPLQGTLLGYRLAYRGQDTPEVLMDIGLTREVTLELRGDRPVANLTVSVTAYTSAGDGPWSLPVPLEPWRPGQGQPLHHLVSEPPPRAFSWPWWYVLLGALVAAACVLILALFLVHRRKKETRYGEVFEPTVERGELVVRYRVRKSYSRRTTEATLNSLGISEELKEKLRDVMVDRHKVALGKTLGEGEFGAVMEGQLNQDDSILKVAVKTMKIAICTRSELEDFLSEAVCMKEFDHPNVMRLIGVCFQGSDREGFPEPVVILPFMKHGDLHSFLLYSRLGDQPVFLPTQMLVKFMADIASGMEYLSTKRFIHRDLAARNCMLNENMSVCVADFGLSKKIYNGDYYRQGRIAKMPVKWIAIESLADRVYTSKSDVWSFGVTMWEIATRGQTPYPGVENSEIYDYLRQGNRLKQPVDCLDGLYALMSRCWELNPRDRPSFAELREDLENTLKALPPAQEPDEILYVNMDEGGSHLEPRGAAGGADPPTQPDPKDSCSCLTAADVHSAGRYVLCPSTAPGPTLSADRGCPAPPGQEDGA

[2] = molecular target: T2, Tyrosine-protein kinase receptor UFO (Homo sapiens, UniProt P30530); assay: Inhibition of Axl (unknown origin) by cell free assay
T2 sequence (P30530 whole entry): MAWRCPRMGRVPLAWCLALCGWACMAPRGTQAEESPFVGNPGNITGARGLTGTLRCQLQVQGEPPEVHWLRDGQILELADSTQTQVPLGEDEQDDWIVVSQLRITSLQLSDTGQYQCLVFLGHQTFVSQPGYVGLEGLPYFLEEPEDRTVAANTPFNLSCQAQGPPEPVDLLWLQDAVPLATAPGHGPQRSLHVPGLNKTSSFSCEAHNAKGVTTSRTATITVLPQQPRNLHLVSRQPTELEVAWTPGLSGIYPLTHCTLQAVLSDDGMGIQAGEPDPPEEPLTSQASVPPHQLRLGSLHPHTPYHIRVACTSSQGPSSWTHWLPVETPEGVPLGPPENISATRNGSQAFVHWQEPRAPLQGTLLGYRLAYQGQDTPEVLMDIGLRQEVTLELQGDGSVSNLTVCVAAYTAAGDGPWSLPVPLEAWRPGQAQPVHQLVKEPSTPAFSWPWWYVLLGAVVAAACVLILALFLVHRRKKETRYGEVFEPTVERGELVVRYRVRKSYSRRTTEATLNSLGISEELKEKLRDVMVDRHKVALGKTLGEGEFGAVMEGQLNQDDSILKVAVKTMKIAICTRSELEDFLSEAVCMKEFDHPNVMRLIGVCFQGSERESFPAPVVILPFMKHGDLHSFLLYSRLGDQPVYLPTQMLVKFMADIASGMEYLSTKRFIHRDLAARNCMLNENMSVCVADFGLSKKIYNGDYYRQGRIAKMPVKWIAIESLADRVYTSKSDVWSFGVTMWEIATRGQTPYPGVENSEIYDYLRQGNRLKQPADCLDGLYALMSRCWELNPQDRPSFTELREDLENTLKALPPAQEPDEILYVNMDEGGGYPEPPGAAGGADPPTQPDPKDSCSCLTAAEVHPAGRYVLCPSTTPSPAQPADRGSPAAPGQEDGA

[3] = molecular target: T3, Tyrosine-protein kinase Mer (Homo sapiens, UniProt Q12866); assay: Inhibition of Mer (unknown origin) by cell free assay
T3 sequence (Q12866 whole entry): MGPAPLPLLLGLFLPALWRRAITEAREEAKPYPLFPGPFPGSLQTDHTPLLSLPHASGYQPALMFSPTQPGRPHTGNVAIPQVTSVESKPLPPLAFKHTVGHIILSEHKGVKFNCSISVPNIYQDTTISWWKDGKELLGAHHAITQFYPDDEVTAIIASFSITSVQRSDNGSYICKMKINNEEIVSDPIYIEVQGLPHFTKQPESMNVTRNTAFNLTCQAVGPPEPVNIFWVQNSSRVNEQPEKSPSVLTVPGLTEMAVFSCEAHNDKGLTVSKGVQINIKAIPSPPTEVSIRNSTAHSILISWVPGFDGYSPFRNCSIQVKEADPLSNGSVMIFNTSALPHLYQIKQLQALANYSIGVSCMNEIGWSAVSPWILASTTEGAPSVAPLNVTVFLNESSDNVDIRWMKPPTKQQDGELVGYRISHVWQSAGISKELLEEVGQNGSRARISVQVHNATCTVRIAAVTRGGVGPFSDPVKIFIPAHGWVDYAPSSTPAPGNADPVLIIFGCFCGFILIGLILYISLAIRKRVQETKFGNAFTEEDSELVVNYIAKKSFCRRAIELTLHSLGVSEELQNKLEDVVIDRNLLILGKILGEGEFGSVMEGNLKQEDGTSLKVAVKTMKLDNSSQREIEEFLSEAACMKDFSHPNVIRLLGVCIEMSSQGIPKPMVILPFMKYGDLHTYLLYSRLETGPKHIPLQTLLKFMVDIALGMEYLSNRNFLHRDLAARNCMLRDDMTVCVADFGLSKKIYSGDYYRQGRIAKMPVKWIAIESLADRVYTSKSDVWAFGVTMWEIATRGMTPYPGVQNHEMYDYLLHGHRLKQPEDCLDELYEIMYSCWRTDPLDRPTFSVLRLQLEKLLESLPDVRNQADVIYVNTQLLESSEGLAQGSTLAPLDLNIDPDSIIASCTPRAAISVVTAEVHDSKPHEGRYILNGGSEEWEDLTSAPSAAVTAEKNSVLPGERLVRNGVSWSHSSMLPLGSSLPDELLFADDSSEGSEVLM

Homo sapiens = organism: Homo sapiens; assay: Ratio of IC50 for Mer (unknown origin) to IC50 for Axl (unknown origin)
BaF3 = assay: Ratio of IC50 for Mer in mouse BaF3 cells to IC50 for Axl in mouse BaF3 cells; assay type: cell-based
[4] = molecular target: T4, Tyrosine-protein kinase Mer (Mus musculus, UniProt Q60805); assay: Inhibition of Mer in mouse BaF3 cells; assay type: cell-based
T4 sequence (Q60805 whole entry): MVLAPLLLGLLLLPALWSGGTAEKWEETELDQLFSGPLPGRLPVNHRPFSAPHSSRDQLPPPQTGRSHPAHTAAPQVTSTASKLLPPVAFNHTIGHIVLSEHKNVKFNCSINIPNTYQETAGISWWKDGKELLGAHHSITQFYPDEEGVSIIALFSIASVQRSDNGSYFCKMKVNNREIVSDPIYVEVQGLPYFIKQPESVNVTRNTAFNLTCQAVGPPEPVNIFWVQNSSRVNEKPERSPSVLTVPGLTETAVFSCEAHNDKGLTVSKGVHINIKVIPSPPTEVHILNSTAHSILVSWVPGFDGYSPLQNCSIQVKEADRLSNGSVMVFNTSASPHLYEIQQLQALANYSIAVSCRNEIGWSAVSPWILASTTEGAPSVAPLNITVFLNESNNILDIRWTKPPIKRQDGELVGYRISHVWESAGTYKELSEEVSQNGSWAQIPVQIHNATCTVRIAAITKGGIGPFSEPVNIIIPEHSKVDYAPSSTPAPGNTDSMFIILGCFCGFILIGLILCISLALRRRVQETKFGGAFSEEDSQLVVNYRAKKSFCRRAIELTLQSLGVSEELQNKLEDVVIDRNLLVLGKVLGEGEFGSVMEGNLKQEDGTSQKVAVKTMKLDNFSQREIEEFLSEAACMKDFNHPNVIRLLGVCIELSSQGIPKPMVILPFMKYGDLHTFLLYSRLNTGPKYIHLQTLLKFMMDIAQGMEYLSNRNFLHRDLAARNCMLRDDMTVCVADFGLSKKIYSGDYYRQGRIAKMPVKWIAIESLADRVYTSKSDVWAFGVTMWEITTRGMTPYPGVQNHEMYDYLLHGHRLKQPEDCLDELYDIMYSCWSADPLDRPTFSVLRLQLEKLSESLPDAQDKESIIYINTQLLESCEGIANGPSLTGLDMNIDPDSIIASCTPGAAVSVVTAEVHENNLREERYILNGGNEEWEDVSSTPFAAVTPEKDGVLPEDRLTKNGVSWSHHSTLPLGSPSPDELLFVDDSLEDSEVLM

Compound | IC50 [1] | IC50 [2] | IC50 [3] | Ratio IC50 (Homo sapiens) | Ratio IC50 (BaF3) | IC50 [4]
CC(C)n1cc(C(=O)Nc2ccc(Oc3ncnc4c3CCN(C3CCN(CC5CC5)CC3)C4)c(F)c2)c(=O)n(-c2ccc(F)cc2)c1=O | 20 nM | 3.5 nM | 34 nM | 9.7 | 4 | 79 nM
CC(C)n1cc(C(=O)Nc2ccc(Oc3ncnc4c3CN(CC3CCOCC3)C4)c(F)c2)c(=O)n(-c2ccc(F)cc2)c1=O | 93 nM | 8.6 nM | 34 nM | 4 | 2.6 | 240 nM
CC(C)n1cc(C(=O)Nc2ccc(Oc3ncnc4c3CN(C(=O)C3CC3)C4)c(F)c2)c(=O)n(-c2ccc(F)cc2)c1=O | 12 nM | 2.7 nM | < 4.1 nM | < 1.5 | 2.8 | 34 nM
CC(C)n1cc(C(=O)Nc2ccc(Oc3ncnc4c3CN(C(=O)CN3CCN(C)CC3)C4)c(F)c2)c(=O)n(-c2ccc(F)cc2)c1=O | 42 nM | 6 nM | 33 nM | 5.5 | 2.6 | 110 nM
CC(C)n1cc(C(=O)Nc2ccc(Oc3ncnc4c3CCN(C(=O)C3CCC3)C4)c(F)c2)c(=O)n(-c2ccc(F)cc2)c1=O | 100 nM | 5.3 nM | > 1000 nM | > 189 | 4.4 | 440 nM
CC(C)n1cc(C(=O)Nc2ccc(Oc3ncnc4c3CCN(C(=O)CCN3CCCC3)C4)c(F)c2)c(=O)n(-c2ccc(F)cc2)c1=O | 74 nM | 7.8 nM | 240 nM | 31 | 3.9 | 290 nM
CC(C)n1cc(C(=O)Nc2ccc(Oc3ncnc4c3CCN(C(=O)C3CCN(C)CC3)C4)c(F)c2)c(=O)n(-c2ccc(F)cc2)c1=O | 120 nM | 12 nM | 500 nM | 42 | 5.3 | 630 nM
CC(C)n1cc(C(=O)Nc2ccc(Oc3ncnc4c3CCN(CC(=O)N3CCN(C)CC3)C4)c(F)c2)c(=O)n(-c2ccc(F)cc2)c1=O | 78 nM | 9.5 nM | 210 nM | 22 | 4.7 | 370 nM
CC(C)n1cc(C(=O)Nc2ccc(Oc3ncnc4c3CCN(C3CCN(C)CC3)C4)c(F)c2)c(=O)n(-c2ccc(F)cc2)c1=O | 13 nM | 5.6 nM | 31 nM | 5.5 | 4.2 | 55 nM
CC(C)Cn1cc(C(=O)Nc2ccc(Oc3ncnc4c3CCN(CC3CCN(C)CC3)C4)c(F)c2)c(=O)n(-c2ccc(F)cc2)c1=O | 46 nM | 5.5 nM | 110 nM | 20 | 2.4 | 110 nM
CC(C)n1cc(C(=O)Nc2ccc(Oc3ncnc4c3CN(C)CC4)c(F)c2)c(=O)n(-c2ccc(F)cc2)c1=O | 150 nM | 64 nM | 270 nM | 4.2 | 4.2 | 810 nM
CC(C)n1cc(C(=O)Nc2ccc(Oc3ncnc4c3CCN(C(=O)CN3CCOCC3)C4)c(F)c2)c(=O)n(-c2ccc(F)cc2)c1=O | 130 nM | 17 nM | 170 nM | 10 | 7 | 910 nM
CC(C)n1cc(C(=O)Nc2ccc(Oc3ncnc4c3CCN(C3CN(C)C3)C4)c(F)c2)c(=O)n(-c2ccc(F)cc2)c1=O | 5.3 nM | 3.8 nM | 27 nM | 7.1 | 4.5 | 24 nM
CC(C)n1cc(C(=O)Nc2ccc(Oc3ncnc4c3CCN(C)C4)c(F)c2)c(=O)n(-c2ccc(F)cc2)c1=O | 110 nM | 6.6 nM | 530 nM | 80 | – | 570 nM
CC(C)n1cc(C(=O)Nc2ccc(Oc3ncnc4c3CN(C)C4)c(F)c2)c(=O)n(-c2ccc(F)cc2)c1=O | 220 nM | 22 nM | > 1000 nM | > 45 | – | 2600 nM
